Read-outs that look alike come from different tables or passages of the source.
Tests used:
Assay type in all cases: cell-based
[1] = test system: PD1-ss+10aa/Gaussia Luciferase; assay: Dox-Induced PD1-ss-Gluc Assay; conditions: 293FRT/TO cells, read-out: 24 hr Dox Inducible PD1ssGluc 293FRT/TO: Mean IC50
Method in brief: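 Stable cell line carrying PD1-ss+10aa/Gaussia luciferase cDNA under T-REx (doxycycline-inducible) control, plated the day before assay. Compound dilutions in DMSO/media containing doxycycline added and incubated at 37° C, 5% CO2. Undefined stereocentres: data refer to stereoisomer mixtures.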

[2] = test system: TNFα-FL/Gaussia Luciferase; assay: Dox Induced TNFα-FL-Gluc Assay; conditions: 293FRT/TO cells, read-out: 24 hr Dox Inducible TNFaFLGluc 293FRT/TO: Mean IC50
Method in brief: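 A stable T-REx cell line carrying doxycycline-inducible TNFα-FL/Gaussia luciferase was plated the day before assay. Compound dilutions in DMSO/media containing doxycycline were then added and incubated at 37° C, 5% CO2.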

[3] = test system: HER3-ss+4aa/Gaussia Luciferase; assay: Dox-Induced Her3-ss-Gluc Assay; conditions: 293FRT/TO cells, read-out: 24 hr Dox Inducible Her3(ss + 4)Gluc 293FRT/TO: Mean IC50
Method in brief: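 Stable T-REx cell line carrying a doxycycline-regulated HER3-ss+4aa/Gaussia luciferase insert, plated the day before assay. Compound dilutions in DMSO/media with doxycycline added, then incubated at 37° C., 5% CO2. Stereoisomer mixtures tested where stereochemistry is not drawn.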

[4] = test system: IL-2-FL/Gaussia Luciferase; assay: Dox Induced IL2-FL-Gluc Assay; conditions: 293FRT/TO cells, read-out: 24 hr Dox Inducible IL2FLGIuc 293FRT/TO: Mean IC50
Method in brief: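 Stable T-REx cell line expressing doxycycline-inducible IL-2-FL/Gaussia luciferase cDNA, plated the day before assay. Compound dilutions in DMSO/media containing doxycycline added and incubated at 37° C., 5% CO2. Unspecified stereochemistry means data refer to a stereoisomer mixture.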

[5] = test system: human multiple myeloma cell line NCI-H929; assay: H929 Cell Viability Assay; conditions: 48 hr, NCI-H929 cells, Celltiter-Glo, read-out: 48 hr H929 Viability Celltiter-Glo: Mean EC50
Experimental: Plates were incubated at 37° C., 5% CO2 for 48 hours. After 48 hours, Celltiter-Glo® (Promega) was added to each well and luciferase signal was quantified using Tecan Infinite M1000 Pro for cell viability determination.
For chemical structures that include one or more stereoisomers, but are illustrated without indicating stereochemistry, the assay data refers to a mixture of stereoisomers.

[6] = test system: human multiple myeloma cell line U266B1; assay: U266 Cell Viability Assay; conditions: U-266, 48 hr, U266B1 cells, Celltiter-Glo, read-out: 48 hr U266 Viability Celltiter-Glo: Mean EC50
Method in brief: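 U266B1 myeloma cells treated with compound dilutions in DMSO/media for 48 h at 37 °C, 5% CO2. Viability read by CellTiter-Glo luminescence. Stereochemically undefined structures were tested as stereoisomer mixtures.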

[7] = 24 hr doxycycline induction, Gaussia luciferase signal

SMILES	IC50 [1, 7] [nM]	IC50 [2, 7] [µM]	IC50 [3, 7] [nM]	IC50 [4, 7] [nM]	EC50 [5] [µM]	EC50 [6] [µM]	IC50 ([1]; 24 hr, doxycycline-induced) [nM]	IC50 ([2]; 24 hr, doxycycline-induced) [µM]	IC50 ([3]; 24 hr, doxycycline-induced) [nM]	IC50 ([4]; 24 hr, doxycycline-induced) [nM]
CC(C)OC(C)(C)c1csc(NC(=O)c2cccn2Cc2ccncc2Cl)n1 [Compound A238, 1-((3-chloropyridin-4-yl)methyl)-N-(4-(2-isopropoxypropan-2-yl)thiazol-2-yl)-1H-pyrrole-2-carboxamide]	643	18.3	1570	1200	> 25	> 25				
O=C(Nc1nc(C#Cc2ccccc2)cs1)c1cccn1Cc1ccncc1 [Compound A132]	150	1.21	417	744	8.85	9.34				
O=C(Nc1nc([C@H]2CCC[C@@H](c3ccccc3)C2)cs1)c1cccn1Cc1ccncc1 [Compound A270]	161	1.74	463	599	10.4	> 25				
CC(C)OC(C)(C)c1csc(NC(=O)c2cccn2CCc2ccncc2)n1 [Compound A91, N-(4-(2-isopropoxypropan-2-yl)thiazol-2-yl)-1-(2-(pyridin-4-yl)ethyl)-1H-pyrrole-2-carboxamide]	11900	> 25	> 25000	> 21600	> 25	> 25				
CCc1sc(NC(=O)c2cccn2Cc2ccncc2)nc1C [Compound A43]	942	> 25	2210	2670	> 25	> 25				
CC(C)OCc1csc(NC(=O)c2cccn2Cc2ccncc2)n1 [Compound A59, N-(4-(isopropoxymethyl)thiazol-2-yl)-1-(pyridin-4-ylmethyl)-1H-pyrrole-2-carboxamide]	1510	16.6	11900	3620	> 25	> 25				
COc1cccc(CCc2csc(NC(=O)c3cccn3Cc3ccncc3)n2)c1 [Compound A176]	272	2.87	643	1200	20.8	> 25				
CC(C)OC(C)(C)c1csc(NC(=O)c2cccn2Cc2ccnnc2)n1 [Compound A69, N-(4-(2-isopropoxypropan-2-yl)thiazol-2-yl)-1-(pyridazin-4-ylmethyl)-1H-pyrrole-2-carboxamide]	2080	> 25	6220	4170	> 25	> 25				
O=C(Nc1ncc(Cl)s1)c1cccn1Cc1ccncc1 [Compound B1]					> 25	> 25	1890	> 25	4320	6280
CO[C@@H]1C[C@H](c2csc(NC(=O)c3cccn3Cc3ccncc3)n2)N(c2ccccc2)C1 [Compound A325]					3.62	> 25	26	0.206	46	58
CC(C)OC(C)(C)c1csc(NC(=O)c2cccn2CCCc2ccccc2)n1 [Compound A64, N-(4-(2-isopropoxypropan-2-yl)thiazol-2-yl)-1-(3-phenylpropyl)-1H-pyrrole-2-carboxamide]	1730	> 25	3480	2720	23.2	> 25				
Cc1cc(NC(=O)c2cccn2Cc2ccncc2)no1 [Compound B8, N-(5-methylisoxazol-3-yl)-1-(pyridin-4-ylmethyl)-1H-pyrrole-2-carboxamide]					> 25	> 25	9100	> 25	> 25000	> 25000
Cc1ccn(Cc2ccncc2)c1C(=O)Nc1nc(C(C)(C)OC(C)C)cs1 [Compound A88, N-(4-(2-isopropoxypropan-2-yl)thiazol-2-yl)-3-methyl-1-(pyridin-4-ylmethyl)-1H-pyrrole-2-carboxamide]	9650	> 25	> 25000	> 25000	> 25	> 25				
